Laboratory results from ChEMBL document CHEMBL1148688, “4-Aryl-5-cyano-2-aminopyrimidines as VEGF-R2 inhibitors: synthesis and biological evaluation” (Bioorg Med Chem Lett, 2007).

Legend:
[1] = Oral bioavailability in nude mouse at 3 mg/kg; format: ADME, organism-based; details: in vivo
[2] = Half life in nude mouse at 100 mg/kg, po; format: ADME, organism-based; parameters: dose 100 mg/kg, route oral; details: in vivo
[3] = tested on: Mus musculus; assay: Drug level in nude mouse plasma at 100 mg/kg, po; format: ADME, organism-based; parameters: dose 100 mg/kg, route oral; details: in vivo
[4] = tested on: Mus musculus; assay: Decrease in body weight in C57BL/6 mouse at 100 to 175 mg/kg, po; details: in vivo
[5] = Area under curve in nude mouse at 3 mg/kg; format: ADME, organism-based; parameters: dose 3 mg/kg; details: in vivo
[6] = molecular target: Cyclin-dependent kinase 1 (Homo sapiens, UniProt P06493); assay: Inhibition of CDK1 activity
Chain of Cyclin-dependent kinase 1 (P06493 whole entry): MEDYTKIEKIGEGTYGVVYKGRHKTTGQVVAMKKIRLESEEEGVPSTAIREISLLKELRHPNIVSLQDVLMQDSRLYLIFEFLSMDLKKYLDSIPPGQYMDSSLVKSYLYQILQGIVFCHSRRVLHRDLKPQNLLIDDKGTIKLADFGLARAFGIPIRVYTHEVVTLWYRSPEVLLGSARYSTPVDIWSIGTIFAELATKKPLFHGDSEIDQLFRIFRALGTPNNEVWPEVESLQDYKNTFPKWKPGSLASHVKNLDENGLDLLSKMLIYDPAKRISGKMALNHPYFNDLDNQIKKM

[7] = molecular target: Vascular endothelial growth factor receptor 2 (Homo sapiens, UniProt P35968); assay: Inhibition of VEGFR2 activity
Chain of Vascular endothelial growth factor receptor 2 (P35968 whole entry): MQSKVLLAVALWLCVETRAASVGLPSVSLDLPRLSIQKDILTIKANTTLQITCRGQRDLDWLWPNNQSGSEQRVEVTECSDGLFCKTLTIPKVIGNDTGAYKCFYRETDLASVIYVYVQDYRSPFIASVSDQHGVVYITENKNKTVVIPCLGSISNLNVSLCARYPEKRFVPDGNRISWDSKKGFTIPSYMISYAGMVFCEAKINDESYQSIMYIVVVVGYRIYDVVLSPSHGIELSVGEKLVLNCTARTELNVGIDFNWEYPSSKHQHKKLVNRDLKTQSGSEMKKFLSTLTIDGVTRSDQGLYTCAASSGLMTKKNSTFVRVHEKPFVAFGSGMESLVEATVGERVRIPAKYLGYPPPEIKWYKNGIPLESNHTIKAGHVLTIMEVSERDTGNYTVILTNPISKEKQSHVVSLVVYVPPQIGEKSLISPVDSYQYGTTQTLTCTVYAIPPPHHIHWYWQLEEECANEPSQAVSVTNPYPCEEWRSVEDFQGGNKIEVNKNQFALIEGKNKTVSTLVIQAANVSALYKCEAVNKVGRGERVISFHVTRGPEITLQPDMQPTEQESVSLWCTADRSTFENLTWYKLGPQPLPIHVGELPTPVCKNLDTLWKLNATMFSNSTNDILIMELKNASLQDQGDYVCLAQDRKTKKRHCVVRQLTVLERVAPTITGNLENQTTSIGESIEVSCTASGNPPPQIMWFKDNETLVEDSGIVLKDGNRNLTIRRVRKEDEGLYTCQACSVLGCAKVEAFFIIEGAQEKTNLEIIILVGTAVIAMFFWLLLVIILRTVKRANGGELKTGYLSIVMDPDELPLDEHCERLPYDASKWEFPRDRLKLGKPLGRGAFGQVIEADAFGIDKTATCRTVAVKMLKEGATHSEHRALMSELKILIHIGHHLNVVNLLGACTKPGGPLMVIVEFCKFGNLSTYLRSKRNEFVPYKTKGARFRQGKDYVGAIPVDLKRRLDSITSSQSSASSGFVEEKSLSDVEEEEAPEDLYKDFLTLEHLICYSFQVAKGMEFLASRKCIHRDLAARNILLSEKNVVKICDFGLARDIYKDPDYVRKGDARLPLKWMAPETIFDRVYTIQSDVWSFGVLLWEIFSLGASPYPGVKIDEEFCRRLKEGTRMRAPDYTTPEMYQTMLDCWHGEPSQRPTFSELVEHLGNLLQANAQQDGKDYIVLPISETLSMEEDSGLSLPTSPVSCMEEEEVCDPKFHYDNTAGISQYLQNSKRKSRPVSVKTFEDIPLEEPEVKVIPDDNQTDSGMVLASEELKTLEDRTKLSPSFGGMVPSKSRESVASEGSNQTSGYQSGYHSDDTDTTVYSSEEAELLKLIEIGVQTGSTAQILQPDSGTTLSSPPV

| SMILES | IC50 [6] [nM] | IC50 [7] [nM] | also measured |
| --- | --- | --- | --- |
| CC(C)(N)c1ccc(-c2nc(Nc3ccc(CCN4CCOCC4)cc3)ncc2C#N)cc1 | 4100 | 27 | bioavailability [1]: 44%; half-life [2]: 7 h; concentration [3]: 12 µM; Activity [4]: Not Active; AUC [5]: 15.6 µM·h |
| CC(C)(N)c1ccc(-c2nc(Nc3cccc(CCN4CCOCC4)c3)ncc2C#N)cc1 | 5700 | 55 |  |
| CCc1nccn1CCc1ccc(Nc2ncc(C#N)c(-c3ccc(C(C)(C)N)cc3)n2)cc1 | 4800 | 94 |  |
| N#Cc1cnc(Nc2ccc(CN3CCCC3)cc2)nc1-c1ccccc1 | 6200 | 61 |  |
| N#Cc1cnc(Nc2ccc(CCN3CCCC3)cc2)nc1-c1ccccc1 | 6500 | 110 |  |
| N#Cc1cnc(Nc2ccc(CCC(=O)N3CCOCC3)cc2)nc1-c1ccccc1 | 2100 | 180 |  |
| N#Cc1cnc(Nc2cccc(CN3CCOCC3)c2)nc1-c1ccccc1 | 2000 | 360 |  |
| COc1cccc(Nc2ncc(C#N)c(-c3ccccc3)n2)c1 | 4200 | 380 |  |
| Cc1cc2cc(Nc3ncc(C#N)c(-c4ccccc4)n3)ccc2[nH]1 | 3300 | 410 |  |
| Cc1ccc(Nc2ncc(C#N)c(-c3ccccc3)n2)cc1 | 3500 | 1000 |  |
| N#Cc1cnc(Nc2nc3ccccc3[nH]2)nc1-c1ccccc1 | > 10000 | 10000 |  |
| N#Cc1cnc(Nc2ncccn2)nc1-c1ccccc1 | > 10000 | > 10000 |  |
| N#Cc1cnc(Nc2ccc(Cl)cc2)nc1-c1ccccc1 | > 10000 | > 10000 |  |
| COc1ccc(-c2nc(Nc3ccc(CCO)cc3)ncc2C#N)cc1 | 1500 | 150 |  |
| N#Cc1cnc(Nc2ccc(CCO)cc2)nc1-c1ccc(Br)cc1 | 2000 | 180 |  |
| COc1ccccc1Nc1ncc(C#N)c(-c2ccccc2)n1 | > 10000 | > 10000 |  |

| SMILES | IC50 [6] [nM] | IC50 [7] [nM] | also measured |
| --- | --- | --- | --- |
| N#Cc1cnc(Nc2ccc(CCO)cc2)nc1-c1ccc(S(N)(=O)=O)cc1 | 1900 | 200 |  |
| N#Cc1cnc(Nc2ccc(CCO)cc2)nc1-c1nc2ccccc2s1 | 560 | 340 |  |
| CC(C)(O)c1ccc(-c2nc(Nc3ccc(CCO)cc3)ncc2C#N)cc1 | 2700 | 410 |  |
| CC(C)(C)c1nc(Nc2ccc(CCO)cc2)ncc1C#N | 1100 | 1600 |  |
| CC(C)(N)c1ccc(-c2nc(Nc3ccc(OCCN4CCOCC4)cc3)ncc2C#N)cc1 | 21000 | 450 |  |
| CC(C)(N)c1ccc(-c2nc(Nc3ccc(CCO)cc3)ncc2C#N)cc1 | 1600 | 52 |  |
| N#Cc1cnc(Nc2ccc(CCO)cc2)nc1-c1cccs1 | 470 | 82 |  |
| COc1ccc(Nc2ncc(C#N)c(-c3ccccc3)n2)cc1 | 3300 | 490 |  |
| COc1cc(Nc2ncc(C#N)c(-c3ccccc3)n2)ccc1CN1CCCC1 | 9000 | 91 |  |
| N#Cc1cnc(Nc2ccc(CCO)cc2)nc1-c1ccc2[nH]ccc2c1 | 410 | 90 |  |
| N#Cc1cnc(Nc2ccc(CCO)cc2)nc1-c1ccccc1 | 2000 | 200 |  |
| N#Cc1cnc(Nc2ccc(CCO)cc2)nc1-c1cc2ccccc2[nH]1 | 1700 | 1400 |  |
| N#Cc1cnc(Nc2ccc3ccccc3c2)nc1-c1ccccc1 | > 10000 | 2100 |  |
| N#Cc1cnc(Nc2ccccc2Cl)nc1-c1ccccc1 | > 10000 | > 10000 |  |
| CN1CCN(CCc2ccc(Nc3ncc(C#N)c(-c4ccc(C(C)(C)N)cc4)n3)cc2)CC1 | 5600 | 21 |  |
| N#Cc1cnc(Nc2ccccc2)nc1-c1ccccc1 | > 10000 | 1000 |  |
